Experimental data reported in patent US5763442A, “Anti-parasitic activity” (Universiteit Van Pretoria, priority 1995, dated 1998).

Test system: Plasmodium falciparum (RB-9)
Test: 3H-hypoxanthine uptake, chloroquine resistant strain (RB-9 [sic])
Format: cell-based
Conditions: for PERCENTAGE INHIBITION (3H-hypoxanthine uptake): RB-9 (so in the source)
Protocol: The following experiment was done to confirm previous results which were obtained microscopically and details of which are set out in Example 1.
For this experiment the same two strains of P. falciparum, as used in Example 1 (RB-1 and Fab-9) were again used. Infected erythrocytes were diluted with human O-positive red blood cells to a parasitaemia of 0.2-0.9% and suspended to 3% in RPMI containing 44 mg/l hypxanthine and 10% human type serum. Aliquots (100 μl) of the suspension were dispensed into the wells of 96-well microtitre plates. To these suspensions 100 μl of the medium were added containing either chloroquine or B669 alone or a combination of chloroquine and B669. Relevant solvent controls were included. Negative control wells were also included containing uninfected red blood cells. The plates were incubated at 38° C. in a desiccator gassed with 5% O2, 5% CO2 and 90% N2. After 24 hours 100 μl culture medium of each well was replaced with […] of hypoxathine--free medium containing 10% human serum and 0,5μ Ci^3 H-hypoxanthine and incubated for a further 18 hours. The contents of the wells were then harvested on to glass fibre filters. The filters were washed with distilled water, dried, haemoglobin dissolved in a sodium bicarbonate solution and placed in scintillation vials containing 4 ml scintillation fluid and counted for 5 min in a liquid scintillation counter.
The percentage inhibition was calculated as follows: [formula] where CPM was the mean of two values of counts per minute for each treatment.

[1] = Plasmodium falciparum, read-out: PERCENTAGE INHIBITION (3H-hypoxanthine uptake)

c1ccc(Nc2cc3nc4ccccc4n(-c4ccccc4)c-3cc2=NC2CCCCC2)cc1 [Compound B669, N,5-bis(phenyl)-3,5-dihydro-3-(cyclohexylimino)-2-phenazinamine]
increase of sensitivity to chloroquine, chloroquine resistant strain (250 nM chloroquine, 0.125-0.5 μg/ml B669): up to three fold | increase of sensitivity to chloroquine, chloroquine resistant strain (125 μM (so in the source) chloroquine, 0.5 and 1.0 μg/ml B669): up to ten fold | inhibition at 0.125 µg/mL [1]: 0% | inhibition at 0.25 µg/mL [1]: 0% | inhibition at 0.5 µg/mL [1]: 0% | inhibition at 1 µg/mL [1]: 0% | PERCENTAGE INHIBITION (3H-hypoxanthine uptake) (B669 0.125 μg/ml + chloroquine 31 nM): 15.2% | PERCENTAGE INHIBITION (3H-hypoxanthine uptake) (B669 0.125 μg/ml + chloroquine 62 nM): 12.2% | PERCENTAGE INHIBITION (3H-hypoxanthine uptake) (B669 0.125 μg/ml + chloroquine 250 nM): 100% | PERCENTAGE INHIBITION (3H-hypoxanthine uptake) (B669 0.125 μg/ml + chloroquine 500 nM): 100% | PERCENTAGE INHIBITION (3H-hypoxanthine uptake) (B669 0.125 μg/ml + chloroquine 1000 nM): 100% | PERCENTAGE INHIBITION (3H-hypoxanthine uptake) (B669 0.25 μg/ml + chloroquine 62 nM): 26.4% | PERCENTAGE INHIBITION (3H-hypoxanthine uptake) (B669 0.25 μg/ml + chloroquine 250 nM): 100% | PERCENTAGE INHIBITION (3H-hypoxanthine uptake) (B669 0.25 μg/ml + chloroquine 500 nM): 98.8% | PERCENTAGE INHIBITION (3H-hypoxanthine uptake) (B669 0.25 μg/ml + chloroquine 1000 nM): 95% | PERCENTAGE INHIBITION (3H-hypoxanthine uptake) (B669 0.5 μg/ml + chloroquine 62 nM): 16.6% | PERCENTAGE INHIBITION (3H-hypoxanthine uptake) (B669 0.5 μg/ml + chloroquine 125 nM): 92% | PERCENTAGE INHIBITION (3H-hypoxanthine uptake) (B669 0.5 μg/ml + chloroquine 250 nM): 95% | PERCENTAGE INHIBITION (3H-hypoxanthine uptake) (B669 0.5 μg/ml + chloroquine 500 nM): 100% | PERCENTAGE INHIBITION (3H-hypoxanthine uptake) (B669 0.5 μg/ml + chloroquine 1000 nM): 100% | PERCENTAGE INHIBITION (3H-hypoxanthine uptake) (B669 1.0 μg/ml + chloroquine 31 nM): 58.6% | PERCENTAGE INHIBITION (3H-hypoxanthine uptake) (B669 1.0 μg/ml + chloroquine 62 nM): 100% | PERCENTAGE INHIBITION (3H-hypoxanthine uptake) (B669 1.0 μg/ml + chloroquine 125 nM): 100% | PERCENTAGE INHIBITION (3H-hypoxanthine uptake) (B669 1.0 μg/ml + chloroquine 250 nM): 100% | PERCENTAGE INHIBITION (3H-hypoxanthine uptake) (B669 1.0 μg/ml + chloroquine 500 nM): 100% | PERCENTAGE INHIBITION (3H-hypoxanthine uptake) (B669 1.0 μg/ml + chloroquine 1000 nM): 100% | effects of the experimental drug at low chloroquine concentrations (chloroquine 31 and 62 nM): Effects of the experimental drug was also seen
